Experimental data taken from patent EP4299736A2, “HYDROLASES AND USES THEREOF” (Vilnius University, priority 2022, dated 2024).

System: hydrolases SEQ ID NO: 1-41
Experiment: Analysis of substrate spectrum of hydrolases (TLC, HPLC-MS, GC-MS); also: key: '+'- active; ' –' inactive towards derivative
Type: biochemical
Method: A hydrolytic activity of enzymes was analysed by thin-layer chromatography (TLC), high-performance liquid chromatography and a mass spectrometry (HPLC-MS) and Gas chromatography and a mass spectrometry (GC-MS) methods. Nucleosides, as substrates and hydrolysis reaction products, were tested by thin-layer chromatography (TLC) method and by a high-performance liquid chromatography - mass spectroscopy (HPLC-MS) method. Other reaction products were detected by Gas chromatography-Mass spectrometry (GC-MS) system. […] The conditions of the reactions are given below.
Hydrolysis products test by thin-layer chromatography (TLC) method. A hydrolytic activity was assayed in reaction mixture containing 45 mM potassium phosphate buffer, pH 7.5, 1 µl enzyme (0.1-4.6 µg/reaction) and 4 mM substrate. The total reaction mix volume was 20 µl. Reaction mixture were incubated at 30 °C temperature up to 3 h and at RT overnight. Thin-layer chromatography (TLC) was conducted on the Merck silica gel 60 F254 plates, using the chloroform and methanol (5:1) mixture of solvents.
High-performance liquid chromatography/mass spectrometry (HPLC-MS) analysis of hydrolysis reaction products. […] Mass scans were measured from m/z 10 up to m/z 500, at 350 °C interface temperature, 250 °C DL temperature, ±4,500 V interface voltage, neutral DL/Qarray, using N 2 as nebulizing and drying gas. Mass spectrometry data was acquired in both the positive and negative ionization mode. The data was analysed using the LabSolutions LCMS software. For HPLC-MS analysis, the reaction mixture consisted of 45 mM potassium phosphate buffer (pH 7.5), 2 mM substrate (from 50-100 mM stock in DMSO), and protein (-0.5-1 mg/ ml). Reaction mixture was incubated at 30 °C temperature up to 3 h and at RT overnight.
Gas chromatography-Mass spectrometry (GC-MS) analysis of hydrolysis reaction products. GC-MS analyses were performed with a Shimadzu GCMS-QP2010 Ultra Plus (Kyoto, Japan). […] Temperature program -50°C (1 min), 50°C →250 °C (25 °C/min), total run time - 15 min. The temperatures of injector, interface and ion source were 250°C.
For GC-MS analysis, the reaction mixture consisted of 45 mM potassium phosphate buffer (pH 7.5), 2.4 mM substrate (from 50-100 mM stock in DMSO), and protein (-0.5-1 mg/ ml). The total reaction mix volume was 1000 µl. The hydrolysis reaction products were extracted with ethyl acetate (3x 400 µl).

Measured: Hydrolysis of S^4-alkyl uridine derivatives

O=c1nc(SCc2ccccc2)ccn1[C@@H]1O[C@H](CO)[C@@H](O)[C@H]1O [4-S-benzyl-U]
+: enzyme SEQ ID No:1 | enzyme SEQ ID No:2 | enzyme SEQ ID No:3 | enzyme SEQ ID No:4 | enzyme SEQ ID No:9 | enzyme SEQ ID No:10 | enzyme SEQ ID No:13 | enzyme SEQ ID No:14 | enzyme SEQ ID No:21 | enzyme SEQ ID No:25 | enzyme SEQ ID No:28 | enzyme SEQ ID No:30 | enzyme SEQ ID No:34 | enzyme SEQ ID No:35 | enzyme SEQ ID No:38 | enzyme SEQ ID No:39 | enzyme SEQ ID No:41

CCSc1nc(=O)n([C@@H]2O[C@H](CO)[C@@H](O)[C@H]2O)cc1F [5-F-4-S-ethyl-U]
+: enzyme SEQ ID No:1 | enzyme SEQ ID No:2 | enzyme SEQ ID No:3 | enzyme SEQ ID No:4 | enzyme SEQ ID No:6 | enzyme SEQ ID No:9 | enzyme SEQ ID No:25 | enzyme SEQ ID No:27 | enzyme SEQ ID No:28 | enzyme SEQ ID No:30 | enzyme SEQ ID No:32 | enzyme SEQ ID No:34 | enzyme SEQ ID No:35 | enzyme SEQ ID No:36 | enzyme SEQ ID No:37 | enzyme SEQ ID No:38

O=c1nc(SCc2ccccc2)c(F)cn1[C@@H]1O[C@H](CO)[C@@H](O)[C@H]1O [5-F-4-S-benzyl-U]
+: enzyme SEQ ID No:1 | enzyme SEQ ID No:2 | enzyme SEQ ID No:3 | enzyme SEQ ID No:4 | enzyme SEQ ID No:9 | enzyme SEQ ID No:25 | enzyme SEQ ID No:30 | enzyme SEQ ID No:34 | enzyme SEQ ID No:35

CC(C)CSc1ccn([C@@H]2O[C@H](CO)[C@@H](O)[C@H]2O)c(=O)n1 [4-S-iso-butyl-U]
+: enzyme SEQ ID No:1 | enzyme SEQ ID No:3 | enzyme SEQ ID No:4

CCSc1ccn([C@@H]2O[C@H](CO)[C@@H](O)[C@H]2O)c(=O)n1 [4-S-ethyl-U]
+: enzyme SEQ ID No:1 | enzyme SEQ ID No:2 | enzyme SEQ ID No:3 | enzyme SEQ ID No:4 | enzyme SEQ ID No:6 | enzyme SEQ ID No:9 | enzyme SEQ ID No:21 | enzyme SEQ ID No:25 | enzyme SEQ ID No:26 | enzyme SEQ ID No:27 | enzyme SEQ ID No:28 | enzyme SEQ ID No:29 | enzyme SEQ ID No:30 | enzyme SEQ ID No:31 | enzyme SEQ ID No:32 | enzyme SEQ ID No:33 | enzyme SEQ ID No:34 | enzyme SEQ ID No:35 | enzyme SEQ ID No:36 | enzyme SEQ ID No:37 | enzyme SEQ ID No:38 | enzyme SEQ ID No:39 | enzyme SEQ ID No:40 | enzyme SEQ ID No:41

CCCSc1ccn([C@@H]2O[C@H](CO)[C@@H](O)[C@H]2O)c(=O)n1 [4-S-n-propyl-U]
+: enzyme SEQ ID No:1 | enzyme SEQ ID No:3 | enzyme SEQ ID No:4

O=c1nc(Sc2ccccc2)c(F)cn1[C@@H]1O[C@H](CO)[C@@H](O)[C@H]1O [5F-4-S-phenyl-U]
+: enzyme SEQ ID No:1 | enzyme SEQ ID No:4 | enzyme SEQ ID No:35 | enzyme SEQ ID No:38

CC(C)Sc1ccn([C@@H]2O[C@H](CO)[C@@H](O)[C@H]2O)c(=O)n1 [4-S-iso-propyl-U]
+: enzyme SEQ ID No:1 | enzyme SEQ ID No:3 | enzyme SEQ ID No:4

CSc1nc(=O)n([C@@H]2O[C@H](CO)[C@@H](O)[C@H]2O)cc1F [5-F-4-S-methyl-U]
+: enzyme SEQ ID No:1 | enzyme SEQ ID No:2 | enzyme SEQ ID No:3 | enzyme SEQ ID No:4 | enzyme SEQ ID No:6 | enzyme SEQ ID No:9 | enzyme SEQ ID No:25 | enzyme SEQ ID No:26 | enzyme SEQ ID No:27 | enzyme SEQ ID No:28 | enzyme SEQ ID No:29 | enzyme SEQ ID No:30 | enzyme SEQ ID No:32 | enzyme SEQ ID No:33 | enzyme SEQ ID No:34 | enzyme SEQ ID No:35 | enzyme SEQ ID No:36 | enzyme SEQ ID No:37 | enzyme SEQ ID No:38
